From patent EP0187551A1, “Pyrazolo[4,3-c]cinnolin-3-one derivatives, their salts, preparation process, use as medicaments, compositions containing them and intermediate products” (ROUSSEL-UCLAF, priority 1985, dated 1986) come the findings set out here.

In assay [1] the test system is rats. Nature of the assay: Four-plate test (test des 4 plaques), rats. The following applies: 20 mg/Kg per os, 1/2 h after administration. It is filed as in vivo. As to the method: (§1) L'appareil (Apelab) et le protocole utilisés ont été décrits par BOISSIER et coll. (European J. Pharmacol. 1968, 4, 145). Les plaques sont reliées à un stimulateur (U. Sachs, Roucaire) qui permet de délivrer des chocs électriques de 120 volts pendant 0,5 s. Les essais sont réalisés sur des lots de 10 souris ou rats 1/2 h après administration per os du composé étudié. Chaque animal est déposé individuellement sur l'appareil. Après 15s d'exploration libre , il est soumis à un choc électrique chaque fois qu'il passe d'une plaque à l'autre, un minimum de 3 secondes étant observé entre deux chocs. Le nombre de chocs délivrés est compté pendant 1 minute. Les résultats obtenus sont comparés à ceux observés chez des animaux témoins par un test de Dunnett.

The subject of assay [2] is rats. Nature of the assay: Staircase test (test de l'escalier). It is filed as in vivo. The following applies: 20 mg/Kg, 1 h after administration, counted for 3 min. An excerpt: L'appareil et le protocole utilisés ont été décrits par THIEBOT et coll. (Psychopharmacologia (Berlin) 1973, 31, 77).
L'expérimentation est réalisée sur des lots de 15 rats naifs. Les animaux sont déposés individuellement dans l'enceinte 1 heure après l'administration du composé étudié. Le nombre de redressements effectués et le nombre de marches montées sont comptés pendant 3 mn.

In another assay the test system is souris. Nature of the assay: Four-plate test (test des 4 plaques), mice. It is filed as in vivo. The following applies: 1/2 h after administration. As to the method:
as §1

Assay [3] addresses récepteurs des benzodiazépines. As to the kind of experiment: Affinity for benzodiazepine receptors (displacement of 3H diazepam, rat cortex membranes). The conditions noted are these: concentration inhibiting 50 % of specific 3H diazepam (10^-9M) binding, 30 min at 0°C, read-out: CI 50 (the source's name). Also noted: species or system rats. The method, then: 1) Affinité pour les récepteurs des benzodiazépines.
On homogénéise au vingtième (poids/volume) dans le sucrose 0,32M, les cortex prélevés sur des cerveaux de rats mâles pesant 150 g en moyenne.
Après centrifugation de l'homogénat à 1000 g pendant 10 minutes à 0°C, le surnageant est centrifugé à 30 000 g pendant 20 minutes à +4"C. Le culot est mis en suspension dans 20 volumes de tampon Tris Hcl 50mM pH 7,4 et centrifugé à 30 000 g pendant 20 minutes à +4°c. Le nouveau culot obtenu est mis en suspension dans 50 ml de tampon Krebs Tris HCl pH 7,4.
On fait ensuite incuber pendant 30 minutes à 0°C, 2 ml de suspension en présence de ^3H diazepam à la concentration 10-^9M, seul, avec des concentrations croissantes du produit à tester, ou, pour déterminer la fixation non spécifique, avec du diazepam non radioactif à la concentration 10^-6M.
Les suspensions incubées sont filtrées sur Whatman GF/C et les filtres sont lavés par deux fois 5 ml de tampon Krebs Tris HCl pH 7,4 à 0°C.
La radioactivité des filtres est mesurée par scintillation liquide.
L'activité du produit est exprimée en C. I. 50 : concentration inhibant 50 % de la liaison spécifique de ^3H diazepam déterminée graphiquement.
(Loss of bound radioactivity is the signal in a displacement assay; it reports binding, not function.)

As to `O=c1c2n[nH]c3ccc(Cl)cc3c-2nn1-c1ccccc1` [Exemple 1, 8-chloro-2,5-dihydro-2-phényl 3H-pyrazolo/4,3-c/ cinnolin-3-one], the “augmentation du nombre de chocs délivrés” value is recorded as 41% in the assay on rats [1] and 63% in the assay with souris (20 mg/Kg per os). In addition, the “diminution du nombre de redressements” value in the assay on rats [2] is 46%. Also, the “nombre de marches montées” value in the assay with rats [2] is “sans modification notable”. Besides, the IC50 in assay [3] is 1.4 nM.

Regarding `O=c1c2n[nH]c3ccccc3c-2nn1-c1ccccc1` [Exemple 3, 2,5-dihydro-2-phényl 3H-pyrazolo/4,3-c/ cinnolin-3-one], the “augmentation du nombre de chocs” value in the assay with souris (50 mg/kg per os) is 50%.

With `O=c1c2n[nH]c3ccccc3c-2nn1-c1ccccn1` [Exemple 8, Chlorhydrate du 2,5-dihydro-(2-pyridin-2-yl) 3H-pyrazolo /4,3-c/ cinnolin-3-one], the “augmentation du nombre de chocs” value in the assay with souris (100 mg/kg per os) is on record as 50%.
